From patent publication US11912686B2 (Gilead Sciences, Inc., priority 2020, dated 2024) come the findings set out here.

Molecules are shown by their SMILES.

The target of this experiment is human LPAR1 (Homo sapiens (Human), UniProt Q92633). In words: LPAR1 intracellular calcium mobilization assay (antagonist mode, FLIPR). Format: cell-based. The conditions noted are these: CHO-K1 EDG2 cells expressing human LPAR1, LPA 18:2 at EC80 (100 nM), test compound 0.5 nM to 10 μM. (In general: A change in cytosolic calcium serves as a functional read-out for many receptors and channels.)
Sequence of human LPAR1 (Q92633 whole entry): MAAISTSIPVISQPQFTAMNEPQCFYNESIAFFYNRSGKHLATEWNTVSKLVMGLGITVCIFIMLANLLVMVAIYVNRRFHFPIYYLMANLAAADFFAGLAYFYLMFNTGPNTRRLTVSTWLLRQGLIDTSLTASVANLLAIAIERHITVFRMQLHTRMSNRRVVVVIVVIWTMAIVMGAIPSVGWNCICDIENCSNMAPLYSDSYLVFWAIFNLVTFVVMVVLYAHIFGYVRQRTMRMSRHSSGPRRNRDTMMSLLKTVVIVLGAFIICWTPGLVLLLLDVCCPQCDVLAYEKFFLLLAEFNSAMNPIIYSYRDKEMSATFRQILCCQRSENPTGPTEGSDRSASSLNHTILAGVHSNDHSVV
On to `C[C@@H](OC(=O)Nc1c(-c2ccc(NC(=O)[C@H]3C[C@@H]3C)cn2)nnn1C)c1cc(F)cnc1F` (mixture of isomers) [Compound 207, (R)-1-(2,5-difluoropyridin-3-yl)ethyl (1-methyl-4-(5-((1RS,2RS)-2-methylcyclopropane-1-carboxamido)pyridin-2-yl)-1H-1,2,3-triazol-5-yl)carbamate], for which the EC50 stood at 41.2 nM.
Take `C[C@@H](OC(=O)Nc1c(-c2ccc(NC(=O)[C@@H]3C[C@H]3CF)cn2)nnn1C)c1cc(F)cnc1F` (mixture of isomers) [Compound 208, (R)-1-(2,5-difluoropyridin-3-yl)ethyl (4-(5-((1RS,2RS)-2-(fluoromethyl)cyclopropane-1-carboxamido)pyridin-2-yl)-1-methyl-1H-1,2,3-triazol-5-yl)carbamate]: the EC50 was 21.1 nM.
Consider `C[C@@H](OC(=O)Nc1c(-c2ccc(NC(=O)[C@@H]3C[C@H]3C(F)(F)F)cn2)nnn1C)c1cc(F)cnc1F` (mixture of isomers) [Compound 209, (R)-1-(2,5-difluoropyridin-3-yl)ethyl (1-methyl-4-(5-((1RS,2RS)-2-(trifluoromethyl)cyclopropane-1-carboxamido)pyridin-2-yl)-1H-1,2,3-triazol-5-yl)carbamate], for which the EC50 was 17.7 nM.
Consider `CO[C@@H]1C[C@H]1C(=O)Nc1ccc(-c2nnn(C)c2NC(=O)O[C@H](C)c2cc(F)cnc2F)nc1` (mixture of isomers) [Compound 210, (R)-1-(2,5-difluoropyridin-3-yl)ethyl (4-(5-((1RS,2RS)-2-methoxycyclopropane-1-carboxamido)pyridin-2-yl)-1-methyl-1H-1,2,3-triazol-5-yl)carbamate], for which the EC50 turned out to be 243 nM.
As for `C[C@@H](OC(=O)Nc1c(-c2ccc(NC(=O)[C@@H]3C[C@H]3[N+](=O)[O-])cn2)nnn1C)c1cc(F)cnc1F` (mixture of isomers) [Compound 211, (R)-1-(2,5-difluoropyridin-3-yl)ethyl (1-methyl-4-(5-((1RS,2RS)-2-nitrocyclopropane-1-carboxamido)pyridin-2-yl)-1H-1,2,3-triazol-5-yl)carbamate], the EC50 is 37.4 nM.
The same measure for `C[C@@H](OC(=O)Nc1c(-c2ccc(NC(=O)[C@@H]3C[C@H]3C(F)F)cn2)nnn1C)c1cc(F)cnc1F` (mixture of isomers) [Compound 216, (R)-1-(2,5-difluoropyridin-3-yl)ethyl (4-(5-((1RS,2RS)-2-(difluoromethyl)cyclopropane-1-carboxamido)pyridin-2-yl)-1-methyl-1H-1,2,3-triazol-5-yl)carbamate]: 22.4 nM; for `C[C@@H](OC(=O)Nc1c(-c2ccc(NC(=O)[C@@H]3C[C@H]3c3ccncc3)cn2)nnn1C)c1cc(F)cnc1F` (mixture of isomers) [Compound 217, (R)-1-(2,5-difluoropyridin-3-yl)ethyl (1-methyl-4-(5-((1RS,2RS)-2-(pyridin-4-yl)cyclopropane-1-carboxamido)pyridin-2-yl)-1H-1,2,3-triazol-5-yl)carbamate]: 58.1 nM.
Next, `C[C@@H](OC(=O)Nc1c(-c2ccc(NC(=O)[C@@H]3C[C@H]3c3ccc(F)nc3)cn2)nnn1C)c1cc(F)cnc1F` (mixture of isomers) [Compound 237, (R)-1-(2,5-difluoropyridin-3-yl)ethyl (4-(5-((1RS,2RS)-2-(6-fluoropyridin-3-yl)cyclopropane-1-carboxamido)pyridin-2-yl)-1-methyl-1H-1,2,3-triazol-5-yl)carbamate]: 19.3 nM; `C[C@@H](OC(=O)Nc1c(-c2ccc(NC(=O)[C@@H]3C[C@H]3c3ccncc3Cl)cn2)nnn1C)c1cc(F)cnc1F` (mixture of isomers) [Compound 238, (R)-1-(2,5-difluoropyridin-3-yl)ethyl (4-(5-((1RS,2RS)-2-(3-chloropyridin-4-yl)cyclopropane-1-carboxamido)pyridin-2-yl)-1-methyl-1H-1,2,3-triazol-5-yl)carbamate]: 52.5 nM.
On to `C[C@@H](OC(=O)Nc1c(-c2ccc(NC(=O)[C@H]3[C@H](c4ccccc4)C3(F)F)cn2)nnn1C)c1cc(F)cnc1F` (mixture of isomers) [Compound 247, (R)-1-(2,5-difluoropyridin-3-yl)ethyl (4-(5-((1RS,3RS)-2,2-difluoro-3-phenylcyclopropane-1-carboxamido)pyridin-2-yl)-1-methyl-1H-1,2,3-triazol-5-yl)carbamate], for which the EC50 came to 13 nM.
In the case of `C[C@@H](OC(=O)Nc1c(-c2ccc(NC(=O)[C@H]3[C@H](C4CC4)C3(F)F)cn2)nnn1C)c1cc(F)cnc1F` (mixture of isomers) [Compound 248, (R)-1-(2,5-difluoropyridin-3-yl)ethyl (4-(5-((1RS,2SR)-3,3-difluoro-[1,1′-bi(cyclopropane)]-2-carboxamido)pyridin-2-yl)-1-methyl-1H-1,2,3-triazol-5-yl)carbamate], the EC50 amounted to 29.8 nM.
For `C[C@@H](OC(=O)Nc1c(-c2ccc(NC(=O)[C@@H]3C[C@H]3C#N)cn2)nnn1C)c1cc(F)cnc1Cl` (mixture of isomers) [Compound 285, (R)-1-(2-chloro-5-fluoropyridin-3-yl)ethyl (4-(5-((1RS,2RS)-2-cyanocyclopropane-1-carboxamido)pyridin-2-yl)-1-methyl-1H-1,2,3-triazol-5-yl)carbamate], the EC50 was found to be 71.8 nM.
Turning to `C[C@@H](OC(=O)Nc1c(-c2ccc(NC(=O)[C@H]3[C@@H]4CS(=O)(=O)C[C@@H]43)cn2)nnn1C)c1cc(F)cnc1F` (racemic) [Compound 229, (R)-1-(2,5-difluoropyridin-3-yl)ethyl (4-(5-((1RS,5SR,6SR)-3,3-dioxido-3-thiabicyclo[3.1.0]hexane-6-carboxamido)pyridin-2-yl)-1-methyl-1H-1,2,3-triazol-5-yl)carbamate], the EC50 is 864 nM.
Turning to `C[C@@H](OC(=O)Nc1c(-c2ccc(NC(=O)[C@H]3[C@@H]4CC(F)(F)C[C@@H]43)cn2)nnn1C)c1cc(F)cnc1F` (racemic) [Compound 230, (R)-1-(2,5-difluoropyridin-3-yl)ethyl (4-(5-((1RS,5SR,6SR)-3,3-difluorobicyclo[3.1.0]hexane-6-carboxamido)pyridin-2-yl)-1-methyl-1H-1,2,3-triazol-5-yl)carbamate], the EC50 was 26.7 nM.
The same measure for `C[C@@H](OC(=O)Nc1c(-c2ccc(NC(=O)C(F)(F)F)cc2)nnn1C)c1cccc(F)c1` [Compound 1, (R)-1-(3-fluorophenyl)ethyl (1-methyl-4-(4-(2,2,2-trifluoroacetamido)phenyl)-1H-1,2,3-triazol-5-yl)carbamate]: 6520 nM.
Next, `C[C@@H](OC(=O)Nc1c(-c2ncc(NC(=O)C3(C#N)CC3)cn2)nnn1C)c1cccnc1Cl` [Compound 2, [(1R)-1-(2-chloro-3-pyridyl)ethyl] N-[5-[5-[(1-cyanocyclopropanecarbonyl)amino]pyrimidin-2-yl]-3-methyl-triazol-4-yl]carbamate]: 953 nM.
Next, `CNC(=O)Nc1ccc(-c2nnn(C)c2NC(=O)O[C@H](C)c2ccccc2Cl)cn1` [Compound 3]: 10000 nM; `CC(=O)Nc1ccc(-c2nnn(C)c2NC(=O)O[C@H](C)c2cccnc2Cl)nc1F` [Compound 5, [(1R)-1-(2-chloro-3-pyridyl)ethyl] N-[5-(5-acetamido-6-fluoro-2-pyridyl)-3-methyl-triazol-4-yl]carbamate]: 1510 nM; `CC(=O)Nc1ccc(-c2nnn(C)c2NC(=O)O[C@H](C)c2cccnc2Cl)cc1` [Compound 6, (R)-1-(2-chloropyridin-3-yl)ethyl (4-(4-acetamidophenyl)-1-methyl-1H-1,2,3-triazol-5-yl)carbamate]: 1860 nM.
Turning to `COC(=O)Nc1ccc(-c2nnn(C)c2NC(=O)O[C@H](C)c2cccnc2Cl)cc1` [Compound 7, (R)-1-(2-chloropyridin-3-yl)ethyl (4-(4-((methoxycarbonyl)amino)phenyl)-1-methyl-1H-1,2,3-triazol-5-yl)carbamate], the EC50 came to 315 nM.
The same measure for `C[C@@H](OC(=O)Nc1c(-c2cnc(NC(=O)C3(C#N)CC3)cn2)nnn1C)c1cccnc1Cl` [Compound 8, (R)-1-(2-chloropyridin-3-yl)ethyl (4-(5-(1-cyanocyclopropane-1-carboxamido)pyrazin-2-yl)-1-methyl-1H-1,2,3-triazol-5-yl)carbamate]: 154 nM; for `CC(=O)Nc1cnc(-c2nnn(C)c2NC(=O)O[C@H](C)c2cccnc2Cl)c(F)c1` [Compound 9, (R)-1-(2-chloropyridin-3-yl)ethyl (4-(5-acetamido-3-fluoropyridin-2-yl)-1-methyl-1H-1,2,3-triazol-5-yl)carbamate]: 2700 nM.
The same measure for `CC(=O)Nc1cnc(-c2nnn(C)c2NC(=O)O[C@H](C)c2cccnc2Cl)cc1F` [Compound 10, (R)-1-(2-chloropyridin-3-yl)ethyl (4-(5-acetamido-4-fluoropyridin-2-yl)-1-methyl-1H-1,2,3-triazol-5-yl)carbamate]: 1020 nM.
The same measure for `C[C@@H](OC(=O)Nc1c(-c2ccc(NC(=O)OC(C)(C)C)cn2)nnn1C)c1cccnc1Cl` [Compound 11, (R)-1-(2-chloropyridin-3-yl)ethyl (4-(5-((tert-butoxycarbonyl)amino)pyridin-2-yl)-1-methyl-1H-1,2,3-triazol-5-yl)carbamate]: 731 nM; for `CC(OC(=O)Nc1c(-c2ccc(NC(=O)C(F)(F)F)cn2)nnn1C)c1cc(Br)cnc1F` (stereo not drawn) [Compound 12, 1-(5-bromo-2-fluoropyridin-3-yl)ethyl (1-methyl-4-(5-(2,2,2-trifluoroacetamido)pyridin-2-yl)-1H-1,2,3-triazol-5-yl)carbamate]: 541 nM.
For the compound `CC(OC(=O)Nc1c(-c2ccc(NC(=O)C(F)(F)F)cn2)nnn1C)c1cc(Br)cnc1Cl` (stereo not drawn) [Compound 13, 1-(5-bromo-2-chloropyridin-3-yl)ethyl (1-methyl-4-(5-(2,2,2-trifluoroacetamido)pyridin-2-yl)-1H-1,2,3-triazol-5-yl)carbamate], the EC50 was 148 nM.
Turning to `CC(=O)Nc1ccc(-c2nnn(C)c2NC(=O)O[C@H](C)c2cc(Cl)cnc2F)nc1` [Compound 14, (R)-1-(5-chloro-2-fluoropyridin-3-yl)ethyl (4-(5-acetamidopyridin-2-yl)-1-methyl-1H-1,2,3-triazol-5-yl)carbamate], the EC50 is 1200 nM.

As a reminder, the EC50 is the concentration at which the effect is half-maximal.
